Measured values taken from PMC12217481, “Structure and mechanism of taniborbactam inhibition of the cefepime-hydrolyzing, partial R2-loop deletion Pseudomonas-derived cephalosporinase variant PDC-88” (Antimicrobial Agents and Chemotherapy, 2025).
In brackets after ≈: the same amount, converted by molar mass. Where two headings read alike, the source gives them in different places.

Tests used:
[1] = tested on: isogenic E. coli strains expressing PDC R2-loop deletion variants (PDC-88 to PDC-92); experiment: MIC changes across the five isogenic E. coli R2-loop deletion strains; format: cell-based, Escherichia coli; settings: inhibitor at constant 4 µg/mL; R2-loop deletion variant strains
Description: (§1) Modal broth microdilution MICs (or median broth microdilution MICs where appropriate) were determined in accordance with Clinical and Laboratory Standards Institute (CLSI) M07 guidelines ([43]). Isogenic E. coli DH10B cells expressing the abovementioned plasmid-encoded PDC constructs were used. […] CLSI quality control strains Escherichia coli NCTC 13353, E. coli ATCC 35218, and Klebsiella pneumoniae ATCC 700603 were used during testing ([24]).

[2] = target: T1, PDC-3 (Pseudomonas aeruginosa, UniProt P24735, T105A); experiment: Timed ESI-MS of acyl-enzyme formation, PDC-3; format: biochemical; settings: for acyl-enzyme complex formation and deacylation: timed ESI-MS, 1 to 30 min (ATM to 60 min)
T1 construct: The PDC-3 expression construct was created in a similar manner but starting with a previously described pBC SK(−) vector; made in house; host or cells: E. coli BL21-CodonPlus (DE3)-RP, pET24a(+)
Description: (§2) Timed ESI-MS experiments allow tracking of the reaction over time and determination of product modification, enabling the elucidation of mechanistic detail. Time courses were collected for both PDC-3 and PDC-88 with FEP (Fig. 4), CAZ (Fig. S1), TOL (Fig. S2), and ATM (Fig. S3). Substrate modification (here, loss of the R2 group) was determined based on differences between masses of apo and acyl-enzyme peaks (Fig. S4). […] Based on the differences in mass between the apo enzyme peaks, the acyl-enzyme peaks, and the molecular masses of each substrate, the mass of the adducts was determined and used to predict any portion of the substrate molecule that might be lost during the reaction (Fig. S4). As expected ([26][–][28]), all three cephalosporin antibiotics (FEP, CAZ, and TOL) lost their R2 groups during the reaction, while ATM (the sole monobactam) maintained its initial mass.
(§3) Five micrograms of PDC-3 or PDC-88 was incubated at the indicated molar ratio (1:2 to 1:100 PDC:β-lactam) in a total volume of 20 µL in 1× PBS at pH 7.4 at room temperature for the duration of the indicated time points. Reactions were quenched with the addition of 10 µL acetonitrile and added to 1 mL of 0.1% formic acid in water.
(§4) Data were collected using a Waters Synapt G2-Si quadrupole time-of-flight (Q-TOF) mass spectrometer and Waters Acquity UPLC BEH C18 1.7 µm column (2.1 by 100 mm). MassLynx V4.1 was used to deconvolute protein peaks. The tune settings for each sample were as follows: capillary voltage of 3.5 kV, sampling cone voltage of 35 V, source offset of 35 V, source temperature of 100°C, desolvation temperature of 500°C, cone gas flow rate of 100 L/h, desolvation gas flow rate of 800 L/h, and nebulizer bar at 6.0. Mobile phase A was 0.1% formic acid in water. Mobile phase B was 0.1% formic acid in acetonitrile. The mass accuracy of this system is ±5 Da.

[3] = target: T2, PDC-88 (Pseudomonas aeruginosa, UniProt P24735, DEL316-317/G27D/G391A/T105A/V205L/V356I); experiment: Timed ESI-MS of acyl-enzyme formation, PDC-88; format: biochemical; settings: for acyl-enzyme complex formation and deacylation: timed ESI-MS, 1 to 30 min (ATM to 60 min)
T2 construct: NdeI 5′-[…]-3ʹ and BamHI 5ʹ-[…]-3ʹ; His tag removed) (N); made in house; host or cells: E. coli BL21-CodonPlus (DE3)-RP, pET24a(+)
Description: as §2, §3, §4

[4] = tested on: NDM-1; design: method as in PMID 22005056; settings: cited from earlier work
[5] = tested on: E. coli DH10B/pTU501 (vector); experiment: Broth microdilution MIC, isogenic E. coli empty vector control; format: cell-based; settings: Escherichia coli
Description: (§5) Genetic constructs used for minimum inhibitory concentration (MIC) testing were designed by Venatorx Pharmaceuticals and codon-optimized for use in E. coli and synthesized by Twist Bioscience as described previously ([9]). […] DH10B cells expressing an empty pET24a(+) vector (Novagen) were also grown, and the plasmid purified. Both pCR4-TOPO-PDC-88 and empty pET24a(+) were cut with BamHI and NdeI, the digests run on low-melting point agarose gels, and the bands of interest excised and ligated to yield a PDC-88 expressing pET24a(+) construct with the His tag removed. The PDC-3 expression construct was created in a similar manner but starting with a previously described pBC SK(−) vector ([42]). The final plasmids were grown in E. coli DH10B cells and purified.
as §1

[6] = tested on: E. coli DH10B/pTU606 (PDC-1); experiment: Broth microdilution MIC, isogenic E. coli expressing PDC-1; format: cell-based; settings: Escherichia coli
Description: as §5, §1

[7] = tested on: E. coli DH10B/pTU609 (PDC-3); experiment: Broth microdilution MIC, isogenic E. coli expressing PDC-3; format: cell-based; settings: Escherichia coli
Description: as §5, §1

[8] = tested on: E. coli DH10B/pTU625 (PDC-88); experiment: Broth microdilution MIC, isogenic E. coli expressing PDC-88; format: cell-based, Escherichia coli; settings: Escherichia coli
Description: as §5, §1

[9] = tested on: E. coli DH10B/pTU626 (PDC-89); experiment: Broth microdilution MIC, isogenic E. coli expressing PDC-89; format: cell-based; settings: Escherichia coli
Description: as §5, §1

[10] = tested on: E. coli DH10B/pTU627 (PDC-90); experiment: Broth microdilution MIC, isogenic E. coli expressing PDC-90; format: cell-based; settings: Escherichia coli
Description: as §5, §1

[11] = tested on: E. coli DH10B/pTU628 (PDC-91); experiment: Broth microdilution MIC, isogenic E. coli expressing PDC-91; format: cell-based; settings: Escherichia coli
Description: as §5, §1

[12] = tested on: E. coli DH10B/pTU629 (PDC-92); experiment: Broth microdilution MIC, isogenic E. coli expressing PDC-92; format: cell-based; settings: Escherichia coli
Description: as §5, §1

[13] = tested on: E. coli ATCC 35218; experiment: Broth microdilution MIC, CLSI quality control strain; format: cell-based; settings: Escherichia coli, ATCC35218, read-out: MIC TOL TZB
Description: as §1

[14] = tested on: PDC-88; experiment: Spectrophotometric β-lactam hydrolysis (progress curves, steady-state kinetics) by PDC-88; format: biochemical, Pseudomonas aeruginosa; settings: over 900 s
Description: In order to determine the impact of the PDC-88 variant on hydrolysis, we determined hydrolysis progress curves for PDC-3, PDC-88, and a strongly hydrolyzing comparator (NDM-1 or PER-2) for cefepime (FEP, Fig. 3A), ceftazidime (CAZ, Fig. 3B), ceftolozane (TOL, Fig. 3C), and aztreonam (ATM, Fig. 3D).
β-Lactamase kinetic and inhibitor constants were determined using an Agilent 8453 UV-Visible Spectrophotometer to record progress curves and determine initial rates and other kinetic parameters as appropriate. Reactions were carried out in 1× phosphate-buffered saline (PBS) (pH 7.4) at room temperature in a 0.2 cm path-length quartz cuvette (Hellma Analytics). Reads were taken every 10 s to minimize UV-mediated background hydrolysis.
The extinction coefficients used were: nitrocefin, Δε482 = 17,400 M^−1 cm^−1, and cefepime, Δε260 = −10,000 M^−1 cm^−1.
The kinetic constants KM and Vmax were determined using a nonlinear least-squares regression of the data to the Henri-Michaelis-Menten equation (equation 1) in Origin Version 2020b (OriginLab, Northampton, MA), where v is the velocity of the reaction; Vmax is the theoretical maximum velocity; KM is the Michaelis constant; and [S] is the substrate concentration: […]

[15] = 60 min incubation, starting molar ratio 1:2

Which “restoration of FEP activity / susceptibility by inhibitor” value [1] does the source give for `NC(=O)[C@@H]1CC[C@@H]2CN1C(=O)N2OS(=O)(=O)O` [AVI, avibactam] here?
Its value is “restoring FEP activity in all cases”.

Which results are given for `C[C@H]1[C@H](NC(=O)/C(=N\OC(C)(C)C(=O)O)c2csc(N)n2)C(=O)N1S(=O)(=O)O` [ATM, aztreonam]?
apo enzyme after incubation [2, 15]: less than 10%; acyl-enzyme complex formation and deacylation [2]: quickly formed acyl-enzyme complexes; apo enzyme after incubation [3, 15]: no apo enzyme present; acyl-enzyme complex formation and deacylation [3]: quickly formed acyl-enzyme complexes; hydrolysis by NDM-1 [4]: does not hydrolyze

Which MIC ([5]; read-out: MIC TOL Alone) does the source give for `Cn1c(N)c(NC(=O)NCCN)c[n+]1CC1=C(C(=O)O)N2C(=O)[C@@H](NC(=O)/C(=N\OC(C)(C)C(=O)[O-])c3nsc(N)n3)[C@H]2SC1` [TOL, ceftolozane] here?
Its MIC is 0.5 µg/mL (≈ 0.75 µM).

What about the MIC ([5]; read-out: MIC TOL TZB) of the same compound?
The MIC was 0.5 µg/mL (≈ 0.75 µM).

What about the MIC ([6]; read-out: MIC TOL TZB) of the same compound?
Its MIC is 4 µg/mL (≈ 6 µM).

What about the MIC ([6]; E. coli DH10B/pTU606 (PDC-1), read-out: MIC TOL Alone) of the same compound?
Its MIC is 4 µg/mL (≈ 6 µM).

What about the MIC ([7]; read-out: MIC TOL TZB) of the same compound?
The MIC was 4 µg/mL (≈ 6 µM).

And the MIC ([7]; E. coli DH10B/pTU609 (PDC-3), read-out: MIC TOL Alone)?
Its MIC is 4 µg/mL (≈ 6 µM).

And the MIC ([8]; read-out: MIC TOL TZB)?
Its MIC is 8 µg/mL (≈ 12 µM).

And the MIC ([8]; E. coli DH10B/pTU625 (PDC-88), read-out: MIC TOL Alone)?
Its MIC is 16 µg/mL (≈ 24 µM).

And the MIC ([9]; read-out: MIC TOL TZB)?
The MIC was 8 µg/mL (≈ 12 µM).

What about the MIC ([9]; E. coli DH10B/pTU626 (PDC-89), read-out: MIC TOL Alone) of the same compound?
The MIC was 16 µg/mL (≈ 24 µM).

And the MIC ([10]; read-out: MIC TOL TZB)?
Its MIC is 16 µg/mL (≈ 24 µM).

What about the MIC ([10]; E. coli DH10B/pTU627 (PDC-90), read-out: MIC TOL Alone) of the same compound?
The MIC was 16 µg/mL (≈ 24 µM).

And the MIC ([11]; read-out: MIC TOL TZB)?
The MIC was 16 µg/mL (≈ 24 µM).

And the MIC ([11]; E. coli DH10B/pTU628 (PDC-91), read-out: MIC TOL Alone)?
Its MIC is 16 µg/mL (≈ 24 µM).

And the MIC ([12]; read-out: MIC TOL TZB)?
Its MIC is 8 µg/mL (≈ 12 µM).

And the MIC ([12]; E. coli DH10B/pTU629 (PDC-92), read-out: MIC TOL Alone)?
Its MIC is 16 µg/mL (≈ 24 µM).

What about the MIC [13] of the same compound?
The MIC was 0.25 µg/mL (≈ 0.375 µM).

What about the “difference between hydrolysis progress curves of PDC-3 and PDC-88” value [14] of the same compound?
The value was “no appreciable difference”.

And the “acyl-enzyme complex formation and deacylation” value [2]?
The value was “did not form a detectable acyl-enzyme complex”.

What about the “acyl-enzyme complex formation and deacylation” value [3] of the same compound?
Its value is “formed an acyl-enzyme complex that deacylated at a moderate rate”.
